# In US8546085B2, “Methods of identifying modulators of the bitter taste receptor TAS2R44” (Givaudan SA, priority 2008, dated 2013):
# Where two headings read alike, the source gives them in different places.
# Assays:
# TAS2R44 = target: T1, TAS2R44 (Homo sapiens, UniProt P59538, L162M); experiment: Fluo-4 calcium assay, antagonists of the response of TAS2R44 to steviol glycosides; type: cell-based
# T1 construct: The full length gene of human TAS2R44 was amplified by polymerase chain reaction (PCR) using gene-specific primers that span the entire coding region; RSS tag (first 45 amino acids of rat somatostatin receptor subtype 3, plus EcoRI site) (N); expressed in transfected cells; host or cells: HEK293T/Galpha16-gustducin 44 cells, stably transfected with pcDNA3.1Zeo-TAS2R44
# T1 sequence (P59538 with tags, fused parts or gaps L162M): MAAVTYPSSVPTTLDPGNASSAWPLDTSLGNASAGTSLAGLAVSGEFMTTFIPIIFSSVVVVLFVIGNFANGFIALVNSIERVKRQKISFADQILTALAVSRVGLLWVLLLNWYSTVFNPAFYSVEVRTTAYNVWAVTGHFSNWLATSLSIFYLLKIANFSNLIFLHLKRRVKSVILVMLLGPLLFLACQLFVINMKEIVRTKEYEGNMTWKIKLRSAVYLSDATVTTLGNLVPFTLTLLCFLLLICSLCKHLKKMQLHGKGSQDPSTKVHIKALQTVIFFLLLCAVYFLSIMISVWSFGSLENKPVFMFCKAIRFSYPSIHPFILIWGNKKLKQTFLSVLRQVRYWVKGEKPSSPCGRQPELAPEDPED
# Protocol: All cells were HEK293T cells stably expressing Gα16-gustducin44, or expressing Gα16-gustducin44 and TAS2R44.
# The method was carried out as described in example 3 subject to the following modifications:
# The samples were tested with and without candidate bitter blocker and the signals were compared. The candidate bitter blocker was dissolved in dimethylsulfoxide (DMSO), and a negative control with equivalent DMSO concentration (0.02%) was performed accordingly to exclude a potential inhibitory effect of the solvent. Furthermore, a control with the relevant steviol glycoside and DMSO (0.02%) was performed accordingly (see table in example 5).
# All data was calculated as ΔF/F0 and the standard deviation (STD) is indicated in each table, see results for the identified bitter blocker 4-(2,2,3-trimethyl-cyclopentyl)-butanoic acid below.
# [1] = test system: bitter taste/aftertaste of Rebaudioside A; experiment: Sensory evaluation of bitter blocking by 8 bitter-sensitive panelists; type: in vivo, human
# Protocol: 4-(2,2,3-trimethyl-cyclopentyl)-butanoic acid was sensorically evaluated for its bitter blocking characteristics by 8 bitter-sensitive panelists.
# The following samples in water were evaluated and compared in their bitter taste/aftertaste: • Rebaudioside A (60 ppm) with bitter blocker (10 ppm) • Rebaudioside A (60 ppm) without bitter blocker • Rebaudioside A (230 ppm, isosweet to 7% sugar in water) • Rebaudioside A (230 ppm) with bitter blocker (10 ppm 30 ppm and 50 ppm)
# 20 ml of each sample was presented in random order.
smiles,measurement,setting,value
"CC1CCC(CCCC(=O)O)C1(C)C (centres unmarked) [4-(2,2,3-trimethyl-cyclopentyl)-butanoic acid]",TAS2R44 ΔF/F0,TAS2R44; 0.7 mM rebaudioside A (EC50) + bitter blocker 0.098 μM,0.4022
same,TAS2R44 ΔF/F0,TAS2R44; 0.7 mM rebaudioside A (EC50) + bitter blocker 0.195 μM,0.3678
same,TAS2R44 ΔF/F0,TAS2R44; 0.7 mM rebaudioside A (EC50) + bitter blocker 0.391 μM,0.2825
same,TAS2R44 ΔF/F0,TAS2R44; 0.7 mM rebaudioside A (EC50) + bitter blocker 0.781 μM,0.2156
same,TAS2R44 ΔF/F0,TAS2R44; 0.7 mM rebaudioside A (EC50) + bitter blocker 1.563 μM,0.1328
same,TAS2R44 ΔF/F0,TAS2R44; 0.7 mM rebaudioside A (EC50) + bitter blocker 3.125 μM,0.1225
same,TAS2R44 ΔF/F0,TAS2R44; 0.7 mM rebaudioside A (EC50) + bitter blocker 6.250 μM,0.1794
same,TAS2R44 ΔF/F0,TAS2R44; 0.7 mM rebaudioside A (EC50) + bitter blocker 12.50 μM,0.2056
same,TAS2R44 ΔF/F0,TAS2R44; 0.7 mM rebaudioside A (EC50) + bitter blocker 25.00 μM,0.2275
same,TAS2R44 ΔF/F0,TAS2R44; 0.7 mM rebaudioside A (EC50) + bitter blocker 50.00 μM,0.2347
same,TAS2R44 ΔF/F0,TAS2R44; 0.7 mM rebaudioside A (EC50) + bitter blocker 100.0 μM,0.2238
same,TAS2R44 ΔF/F0,TAS2R44; 2.2 mM stevioside (EC50) + bitter blocker 0.098 μM,0.665
same,TAS2R44 ΔF/F0,TAS2R44; 2.2 mM stevioside (EC50) + bitter blocker 0.195 μM,0.596
same,TAS2R44 ΔF/F0,TAS2R44; 2.2 mM stevioside (EC50) + bitter blocker 0.391 μM,0.555
same,TAS2R44 ΔF/F0,TAS2R44; 2.2 mM stevioside (EC50) + bitter blocker 0.781 μM,0.491
same,TAS2R44 ΔF/F0,TAS2R44; 2.2 mM stevioside (EC50) + bitter blocker 1.563 μM,0.431
same,TAS2R44 ΔF/F0,TAS2R44; 2.2 mM stevioside (EC50) + bitter blocker 3.125 μM,0.430
same,TAS2R44 ΔF/F0,TAS2R44; 2.2 mM stevioside (EC50) + bitter blocker 6.250 μM,0.328
same,TAS2R44 ΔF/F0,TAS2R44; 2.2 mM stevioside (EC50) + bitter blocker 12.50 μM,0.293
same,TAS2R44 ΔF/F0,TAS2R44; 2.2 mM stevioside (EC50) + bitter blocker 25.00 μM,0.252
same,TAS2R44 ΔF/F0,TAS2R44; 2.2 mM stevioside (EC50) + bitter blocker 50.00 μM,0.238
same,TAS2R44 ΔF/F0,TAS2R44; 2.2 mM stevioside (EC50) + bitter blocker 100.0 μM,0.212
same,IC50,"TAS2R44; inhibition of the response to 0.7 mM rebaudioside A, read-out: IC50 concentration for rebaudioside",0.357 µM
same,IC50,"TAS2R44; inhibition of the response to 2.2 mM stevioside, read-out: IC50 concentration for stevioside",0.578 µM
same,effect on bitterness of Rebaudioside A,"[1]; 10 ppm bitter blocker, in water",blocked the upfront bitterness but some lingering bitterness/aftertaste remained
same,effect on bitterness of Rebaudioside A,"[1]; 30 ppm bitter blocker, Rebaudioside A 230 ppm in water",improved effect to reduce the lingering bitterness/bitter aftertaste
same,effect on bitterness of Rebaudioside A,"[1]; 50 ppm bitter blocker, Rebaudioside A 230 ppm in water",improved effect to reduce the lingering bitterness/bitter aftertaste
same,effect on bitterness of Rebaudioside A,"[1]; 60 ppm, in water",completely blocked the bitterness including the bitter aftertaste
same,effect on bitter taste/aftertaste of Rebaudioside A,"[1]; all panelists, samples in water",blocked or significantly reduced the bitter taste/aftertaste
